Data on 25 molecules can be found in patent US20150299188A1, “HETEROCYCLIC COMPOUND” (priority 2012, published 2015).

The test system of the assay is FLAP (5-lipoxygenase activating protein). As to the kind of experiment: In vitro binding test: displacement of [3H]-7-chloro-3-(5-((3-fluoropyridin-2-yl)methoxy)-2-methylphenyl)-3,4-dihydroquinazolin-2(1H)-one from Sf9 microsome fractions. The settings on record: Sf9 microsome fractions expressing FLAP; 100% = radioligand binding with 10 μM sodium 3-(3-(tert-butylsulfanyl)-1-(4-chlorobenzyl)-5-isopropyl-1H-indol-2-yl)-2,2-dimethylpropanoate, 0% = DMSO; test compound concentration not given. The arrangement: species or system human and mouse. The procedure, abridged:
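Sf9 microsomes expressing human or mouse FLAP (2 μg/mL) preincubated with compound 10 min at room temperature, then 120 nM tritiated quinazolinone ligand added for 60 min; buffer 100 mM Tris-HCl pH 7.5 with NaCl, EDTA, DTT, glycerol, Tween20. Bound ligand filtered and counted by scintillation; 10 μM indole propanoate defines 100% inhibition, DMSO 0%.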
In the case of `O=C1Nc2c(N3CCOCC3)ncc(Cl)c2CN1c1cc2c(cc1Cl)CCC(c1ncccc1F)O2` (stereo not shown) [Example 81, 5-chloro-3-(6-chloro-2-(3-fluoropyridin-2-yl)-3,4-dihydro-2H-chromen-7-yl)-8-(morpholin-4-yl)-3,4-dihydropyrido[3,4-d]pyrimidin-2(1H)-one], the “inhibitory rate (%)” value is recorded as 102%.
For the molecule `Cc1cc2c(cc1N1Cc3c(Cl)cc(C(=O)NC4CC4)cc3NC1=O)OC(c1ncccc1F)CC2` (stereo not shown) [Example 82, 5-chloro-N-cyclopropyl-3-(2-(3-fluoropyridin-2-yl)-6-methyl-3,4-dihydro-2H-chromen-7-yl)-2-oxo-1,2,3,4-tetrahydroquinazoline-7-carboxamide], the “inhibitory rate (%)” value worked out at 101%.
The value for `Cc1cc2c(c(C3CC3)n1)CN(c1cc3c(cc1C)CCC(c1ncccc1F)O3)C(=O)N2` (stereo not shown) [Example 83, 5-cyclopropyl-3-(2-(3-fluoropyridin-2-yl)-6-methyl-3,4-dihydro-2H-chromen-7-yl)-7-methyl-3,4-dihydropyrido[4,3-d]pyrimidin-2(1H)-one] was 96%; that for `CC(C)(O)c1nccc2c1CN(c1cc3c(cc1Cl)CCC(c1ncccc1F)O3)C(=O)N2` (stereo not shown) [Example 84, 3-(6-chloro-2-(3-fluoropyridin-2-yl)-3,4-dihydro-2H-chromen-7-yl)-5-(2-hydroxypropan-2-yl)-3,4-dihydropyrido[4,3-d]pyrimidin-2(1H)-one] was 106%.
The value for `O=C1Nc2cc(-c3ncco3)nc(C3CC3)c2CN1c1cc2c(cc1Cl)CCC(c1ncccc1F)O2` (stereo not shown) [Example 85, 3-(6-chloro-2-(3-fluoropyridin-2-yl)-3,4-dihydro-2H-chromen-7-yl)-5-cyclopropyl-7-(1,3-oxazol-2-yl)-3,4-dihydropyrido[4,3-d]pyrimidin-2(1H)-one] was 102%.
Turning to `O=C1CCCN1c1cc2c(c(C3CC3)n1)CN(c1cc3c(cc1Cl)CCC(c1ncccc1F)O3)C(=O)N2` (stereo not shown) [Example 86, 3-(6-chloro-2-(3-fluoropyridin-2-yl)-3,4-dihydro-2H-chromen-7-yl)-5-cyclopropyl-7-(2-oxopyrrolidin-1-yl)-3,4-dihydropyrido[4,3-d]pyrimidin-2(1H)-one], the “inhibitory rate (%)” value was 108%.
The value for `Cc1cc2c(cc1N1Cc3c(C(F)(F)F)ncc(Br)c3NC1=O)OC(c1ncccc1F)CC2` (stereo not shown) [Example 87, 8-bromo-3-(2-(3-fluoropyridin-2-yl)-6-methyl-3,4-dihydro-2H-chromen-7-yl)-5-(trifluoromethyl)-3,4-dihydropyrido[4,3-d]pyrimidin-2(1H)-one] was 118%; that for `Cc1cc2c(cc1N1Cc3c(F)cncc3NC1=O)OC(c1ncccc1F)CC2` (stereo not shown) [Example 88, 5-fluoro-3-(2-(3-fluoropyridin-2-yl)-6-methyl-3,4-dihydro-2H-chromen-7-yl)-3,4-dihydropyrido[3,4-d]pyrimidin-2(1H)-one] was 96%; that for `COC(=O)/C=C/c1cc2c(c(C3CC3)n1)CN(c1cc3c(cc1C)CCC(c1ncccc1F)O3)C(=O)N2` (stereo not shown) [Example 89, methyl (2E)-3-(5-cyclopropyl-3-(2-(3-fluoropyridin-2-yl)-6-methyl-3,4-dihydro-2H-chromen-7-yl)-2-oxo-1,2,3,4-tetrahydropyrido[4,3-d]pyrimidin-7-yl)acrylate] was 98%.
The value for `O=C1Nc2cc(C3CC3)nc(C3CC3)c2CN1c1ccc2c(c1)OC(c1ncccc1F)CC2` (stereo not shown) [Example 90, 5,7-dicyclopropyl-3-(2-(3-fluoropyridin-2-yl)-3,4-dihydro-2H-chromen-7-yl)-3,4-dihydropyrido[4,3-d]pyrimidin-2(1H)-one] was 118%; that for `Cc1cc2c(cc1N1Cc3c(cc(/C=C/C(=O)O)nc3C3CC3)NC1=O)OC(c1ncccc1F)CC2` (stereo not shown) [Example 91, (2E)-3-(5-cyclopropyl-3-(2-(3-fluoropyridin-2-yl)-6-methyl-3,4-dihydro-2H-chromen-7-yl)-2-oxo-1,2,3,4-tetrahydropyrido[4,3-d]pyrimidin-7-yl)acrylic acid] was 109%; that for `Cc1cc2c(cc1N1Cc3c(C(F)(F)F)ncc(/C=C/C(=O)O)c3NC1=O)OC(c1ncccc1F)CC2` (stereo not shown) [Example 92, (2E)-3-(3-(2-(3-fluoropyridin-2-yl)-6-methyl-3,4-dihydro-2H-chromen-7-yl)-2-oxo-5-(trifluoromethyl)-1,2,3,4-tetrahydropyrido[4,3-d]pyrimidine-8-yl)acrylic acid] was 106%.
The value for `Cc1cc2c(cc1N1Cc3c(cc(-c4ccnn4C)nc3C3CC3)NC1=O)OC(c1ncccc1F)CC2` (stereo not shown) [Example 93, 5-cyclopropyl-3-(2-(3-fluoropyridin-2-yl)-6-methyl-3,4-dihydro-2H-chromen-7-yl)-7-(1-methyl-1H-pyrazol-5-yl)-3,4-dihydropyrido[4,3-d]pyrimidin-2(1H)-one] was 112%; that for `Cc1cc2c(cc1N1Cc3c(cc(CCC(=O)O)nc3C3CC3)NC1=O)OC(c1ncccc1F)CC2` (stereo not shown) [Example 94, 3-(5-cyclopropyl-3-(2-(3-fluoropyridin-2-yl)-6-methyl-3,4-dihydro-2H-chromen-7-yl)-2-oxo-1,2,3,4-tetrahydropyrido[4,3-d]pyrimidin-7-yl)propanoic acid] was 104%.
Turning to `NC(=O)c1cc2c(c(C3CC3)n1)CN(c1cc3c(cc1Cl)CCC(c1ncccc1F)O3)C(=O)N2` (stereo not shown) [Example 95, 3-(6-chloro-2-(3-fluoropyridin-2-yl)-3,4-dihydro-2H-chromen-7-yl)-5-cyclopropyl-2-oxo-1,2,3,4-tetrahydropyrido[4,3-d]pyrimidine-7-carboxamide], the “inhibitory rate (%)” value worked out at 89%.
The value for `CCc1cc2c(c(C3CC3)n1)CN(c1cc3c(cc1C)CCC(c1ncccc1F)O3)C(=O)N2` (stereo not shown) [Example 96, 5-cyclopropyl-7-ethyl-3-(2-(3-fluoropyridin-2-yl)-6-methyl-3,4-dihydro-2H-chromen-7-yl)-3,4-dihydropyrido[4,3-d]pyrimidin-2(1H)-one] was 84%; that for `COCCNC(=O)c1cc2c(c(C3CC3)n1)CN(c1cc3c(cc1Cl)CCC(c1ncccc1F)O3)C(=O)N2` (stereo not shown) [Example 97, 3-(6-chloro-2-(3-fluoropyridin-2-yl)-3,4-dihydro-2H-chromen-7-yl)-5-cyclopropyl-N-(2-methoxyethyl)-2-oxo-1,2,3,4-tetrahydropyrido[4,3-d]pyrimidine-7-carboxamide] was 90%.
With `O=C(NC1COC1)c1cc2c(c(C3CC3)n1)CN(c1cc3c(cc1Cl)CCC(c1ncccc1F)O3)C(=O)N2` (stereo not shown) [Example 98, 3-(6-chloro-2-(3-fluoropyridin-2-yl)-3,4-dihydro-2H-chromen-7-yl)-5-cyclopropyl-N-(oxetan-3-yl)-2-oxo-1,2,3,4-tetrahydropyrido[4,3-d]pyrimidine-7-carboxamide], the “inhibitory rate (%)” value is on record as 94%.
In the case of `CNC(=O)c1cc2c(c(C3CC3)n1)CN(c1cc3c(cc1Cl)CCC(c1ncccc1F)O3)C(=O)N2` (stereo not shown) [Example 99, 3-(6-chloro-2-(3-fluoropyridin-2-yl)-3,4-dihydro-2H-chromen-7-yl)-5-cyclopropyl-N-methyl-2-oxo-1,2,3,4-tetrahydropyrido[4,3-d]pyrimidine-7-carboxamide], the “inhibitory rate (%)” value stood at 94%.
The value for `Cn1cc(-c2cc3c(c(C4CC4)n2)CN(c2cc4c(cc2Cl)CCC(c2ncccc2F)O4)C(=O)N3)cn1` (stereo not shown) [Example 100, 3-(6-chloro-2-(3-fluoropyridin-2-yl)-3,4-dihydro-2H-chromen-7-yl)-5-cyclopropyl-7-(1-methyl-1H-pyrazol-4-yl)-3,4-dihydropyrido[4,3-d]pyrimidin-2(1H)-one] was 100%; that for `O=C(NCCO)c1cc2c(c(C3CC3)n1)CN(c1cc3c(cc1Cl)CCC(c1ncccc1F)O3)C(=O)N2` (stereo not shown) [Example 101, 3-(6-chloro-2-(3-fluoropyridin-2-yl)-3,4-dihydro-2H-chromen-7-yl)-5-cyclopropyl-N-(2-hydroxyethyl)-2-oxo-1,2,3,4-tetrahydropyrido[4,3-d]pyrimidine-7-carboxamide] was 96%; that for `Cn1cc(-c2ncc(Cl)c3c2NC(=O)N(c2cc4c(cc2Cl)CCC(c2ncccc2F)O4)C3)cn1` (stereo not shown) [Example 102, 5-chloro-3-(6-chloro-2-(3-fluoropyridin-2-yl)-3,4-dihydro-2H-chromen-7-yl)-8-(1-methyl-1H-pyrazol-4-yl)-3,4-dihydropyrido[3,4-d]pyrimidin-2(1H)-one] was 101%.
The value for `O=C1Nc2cc(-c3noc(=O)[nH]3)nc(C3CC3)c2CN1c1cc2c(cc1Cl)CCC(c1ncccc1F)O2` (stereo not shown) [Example 103, 3-(6-chloro-2-(3-fluoropyridin-2-yl)-3,4-dihydro-2H-chromen-7-yl)-5-cyclopropyl-7-(5-oxo-4,5-dihydro-1,2,4-oxadiazol-3-yl)-3,4-dihydropyrido[4,3-d]pyrimidin-2(1H)-one] was 94%; that for `Cc1cc2c(cc1N1Cc3c(cc(C4CC4)nc3-c3ccnn3C)NC1=O)OC(c1ncccc1F)CC2` (stereo not shown) [Example 104, 7-cyclopropyl-3-(2-(3-fluoropyridin-2-yl)-6-methyl-3,4-dihydro-2H-chromen-7-yl)-5-(1-methyl-1H-pyrazol-5-yl)-3,4-dihydropyrido[4,3-d]pyrimidin-2(1H)-one] was 91%; that for `O=C1Nc2cc(N3CCCS3(=O)=O)nc(C3CC3)c2CN1c1cc2c(cc1Cl)CCC(c1ncccc1F)O2` (stereo not shown) [Example 106, 3-(6-chloro-2-(3-fluoropyridin-2-yl)-3,4-dihydro-2H-chromen-7-yl)-5-cyclopropyl-7-(1,1-dioxido-1,2-thiazolidin-2-yl)-3,4-dihydropyrido[4,3-d]pyrimidin-2(1H)-one] was 94%.
